Reference: PubChem BioAssay AID330 (DTP/NCI, 2004)
Values joined by “and” are separate entries in the source; they are usually repeats but may differ in a detail not shown here. Identical values can stand only once. Inconclusive results and toxic doses are left out. The calls were made as follows: active = survival T/C of 150% or more; inactive = T/C below 125% in these data.

Test system: P388 leukemia ip, CD2F1 mice, survival T/C
Test: NCI In Vivo Anticancer Drug Screen. Data for tumor model P388 Leukemia (intraperitoneal) in CD2F1 (CDF1) mice
Details: endpoint: median survival time, higher = longer survival
Outline: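 Mice carrying the transplanted tumor received test compound or vehicle. Survival was recorded in each group, and the value is the treated-group measurement divided by that of the vehicle-treated control group.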

[1] = dose: 100.0 mg/kg/injection, schedule: Q01DX005 (ip), vehicle: saline with Tween-80
[2] = dose: 50.0 mg/kg/injection, schedule: Q01DX005 (ip), vehicle: Klucel (hydroxypropylcellulose) (HPC)
[3] = dose: 100.0 mg/kg/injection, schedule: Q01DX005 (ip), vehicle: Klucel (hydroxypropylcellulose) (HPC)
[4] = dose: 200.0 mg/kg/injection, schedule: Q01DX005 (ip), vehicle: Klucel (hydroxypropylcellulose) (HPC)

Measured: T/C

COc1c2occc2c(N=Cc2ccc([N+](=O)[O-])cc2)c2ccc(=O)oc12
inactive: dose: 0.38 mg/kg/injection, schedule: Q01DX005 (ip), vehicle: saline with Tween-80 99 % of control | dose: 0.75 mg/kg/injection, schedule: Q01DX005 (ip), vehicle: saline with Tween-80 98 % of control | dose: 1.5 mg/kg/injection, schedule: Q01DX005 (ip), vehicle: saline with Tween-80 90 % of control | dose: 6.25 mg/kg/injection, schedule: Q01DX005 (ip), vehicle: saline with Tween-80 87 % of control | [1] 87 % of control | dose: 200.0 mg/kg/injection, schedule: Q01DX005 (ip), vehicle: saline with Tween-80 98 % of control

CCCC(=O)C(CC)C(=O)CCC(=O)Nc1cccc([N+](=O)[O-])c1 (configuration not stated)
inactive: dose: 60.0 mg/kg/injection, schedule: Q01DX005 (ip), vehicle: saline with Tween-80 101 % of control | dose: 120.0 mg/kg/injection, schedule: Q01DX005 (ip), vehicle: saline with Tween-80 104 % of control | dose: 240.0 mg/kg/injection, schedule: Q01DX005 (ip), vehicle: saline with Tween-80 109 % of control

NC(=S)c1cccc(/C=N/Nc2ccccn2)c1
inactive: dose: 100.0 mg/kg/injection, schedule: Q01DX001 (ip), vehicle: saline 96 % of control | dose: 200.0 mg/kg/injection, schedule: Q01DX001 (ip), vehicle: saline 94 % of control | dose: 400.0 mg/kg/injection, schedule: Q01DX001 (ip), vehicle: saline 96 % of control

CN(C(=O)c1cc2c(cc1Br)OCO2)c1cccc2ccccc12
inactive: dose: 12.5 mg/kg/injection, schedule: Q01DX009 (ip), vehicle: distilled water + Tween-80 98 % of control | dose: 25.0 mg/kg/injection, schedule: Q01DX009 (ip), vehicle: distilled water + Tween-80 103 % of control | dose: 50.0 mg/kg/injection, schedule: Q01DX009 (ip), vehicle: distilled water + Tween-80 103 % of control | dose: 100.0 mg/kg/injection, schedule: Q01DX009 (ip), vehicle: distilled water + Tween-80 95 % of control | dose: 200.0 mg/kg/injection, schedule: Q01DX009 (ip), vehicle: distilled water + Tween-80 100 % of control

Cc1cc(C)cc(C(=O)NC(c2ccncc2)C(NC(=O)c2cc(C)cc(C)c2)c2ccncc2)c1 (configuration not stated)
inactive: dose: 25.0 mg/kg/injection, schedule: Q01DX005 (ip), vehicle: saline with Tween-80 92 % of control | dose: 50.0 mg/kg/injection, schedule: Q01DX005 (ip), vehicle: saline with Tween-80 90 % of control | [1] 99 % of control | dose: 400.0 mg/kg/injection, schedule: Q01DX005 (ip), vehicle: saline with Tween-80 92 % of control

CC1(C)C(=O)C=CC2(C)C1CC(O)C1(C)C2CCC2(C)C(c3ccoc3)OC(=O)C3OC321 (configuration not stated)
inactive: dose: 1.5 mg/kg/injection, schedule: Q01DX009 (ip), vehicle: Klucel (hydroxypropylcellulose) (HPC) 98 % of control | dose: 3.0 mg/kg/injection, schedule: Q01DX009 (ip), vehicle: Klucel (hydroxypropylcellulose) (HPC) 103 % of control | dose: 6.0 mg/kg/injection, schedule: Q01DX009 (ip), vehicle: Klucel (hydroxypropylcellulose) (HPC) 101 % of control | dose: 12.0 mg/kg/injection, schedule: Q01DX009 (ip), vehicle: Klucel (hydroxypropylcellulose) (HPC) 102 % of control

Nc1ncnc2c1ncn2Cc1cccnc1
inactive: [2] 98 % of control | [3] 98 % of control | [4] 100 % of control

CCOCCN1CCN(CCCN2c3ccccc3Sc3ccc(C(F)(F)F)cc32)CC1
inactive: dose: 6.25 mg/kg/injection, schedule: Q04DX003 (ip), vehicle: saline 104 % of control and 88 % of control | dose: 12.5 mg/kg/injection, schedule: Q04DX003 (ip), vehicle: saline 110 % of control and 118 % of control | dose: 25.0 mg/kg/injection, schedule: Q04DX003 (ip), vehicle: saline 115 % of control

O=C(NNc1c(F)c(F)c(C(F)(F)F)c(F)c1F)c1ccccc1
inactive: [2] 98 % of control | [3] 100 % of control | [4] 91 % of control

O=C(O)c1cn2cccnc2n1
inactive: dose: 100.0 mg/kg/injection, schedule: Q01DX001 (ip), vehicle: Klucel (hydroxypropylcellulose) (HPC) 100 % of control | dose: 200.0 mg/kg/injection, schedule: Q01DX001 (ip), vehicle: Klucel (hydroxypropylcellulose) (HPC) 98 % of control | dose: 400.0 mg/kg/injection, schedule: Q01DX001 (ip), vehicle: Klucel (hydroxypropylcellulose) (HPC) 99 % of control
